Reference: patent publication US20250186405A1, “Compound For Use In Treating Narcolepsy” (Alkermes, Inc., priority 2023, published 2025)

System: healthy adult subjects
Assay: Part 1 SAD: treatment-emergent adverse events after single oral dose (N = 6 per dose)
Protocol: Part 1 of the study is a SAD evaluation in healthy subjects consisting of 6 cohorts: Cohorts 1-6 received powder-in-capsule or matching placebo. There were approximately 8 subjects per cohort. Dose levels were as follows:
No food was given for at least 4 hours after dose administration. Water was allowed ad libitum except for the time 1 hour before and 1 hour after study drug administration. Safety assessments including AEs, safety ECGs, vital signs, and clinical laboratory tests were conducted, and plasma PK samples were collected.
Adverse events (AEs) and serious adverse events (SAEs) were monitored continuously until the completion of the study.

CS(=O)(=O)N[C@H]1CCCN2C(=O)COc3ccccc3C3CCC(CC3)OCC12 (stereo partly drawn) [Compound A, N-[(4S,4aR,7α,10α)-1,2,3,4,4a,5,7,8,9,10,16,17-dodecahydro-17-oxo-7,10-ethanopyrido[1,2-d][1,7,4]benzodioxaazacyclotridecin-4-yl]methanesulfonamide]
AE Leading to Study Drug Discontinuation (1 mg): 0 n | Any SAEs (1 mg): 0 n | Any TEAE (1 mg): 4 n | Death (1 mg): 0 n | TEAE Anxiety (1 mg): 0 n | TEAE Aspartate aminotransferase increased (1 mg): 0 n | TEAE Back pain (1 mg): 0 n | TEAE Blood pressure increased (1 mg): 0 n | TEAE Dermatitis contact (1 mg): 1 n | TEAE Dizziness (1 mg): 0 n | TEAE Fatigue (1 mg): 0 n | TEAE Headache (1 mg): 0 n | TEAE Hot flush (1 mg): 0 n | TEAE Hypervigilance (1 mg): 0 n | TEAE Insomnia (1 mg): 0 n | TEAE Metamorphopsia (1 mg): 0 n | TEAE Nausea (1 mg): 0 n | TEAE Oropharyngeal pain (1 mg): 0 n | TEAE Pharyngitis (1 mg): 1 n | TEAE Pollakiuria (1 mg): 0 n | TEAE Skin hyperpigmentation (1 mg): 1 n | TEAE Upper respiratory tract infection (1 mg): 0 n | TEAE Urinary incontinence (1 mg): 0 n | TEAE Vision blurred (1 mg): 0 n | TEAE by Highest Relationship: Not Related (1 mg): 4 n | TEAE by Highest Relationship: Related (1 mg): 0 n | TEAE by Highest Severity: Mild (1 mg): 1 n | TEAE by Highest Severity: Moderate (1 mg): 3 n | TEAE by Highest Severity: Severe (1 mg): 0 n | AE Leading to Study Drug Discontinuation (3 mg): 0 n | Any SAEs (3 mg): 0 n | Any TEAE (3 mg): 0 n | Death (3 mg): 0 n | TEAE Anxiety (3 mg): 0 n | TEAE Aspartate aminotransferase increased (3 mg): 0 n | TEAE Back pain (3 mg): 0 n | TEAE Blood pressure increased (3 mg): 0 n | TEAE Dermatitis contact (3 mg): 0 n | TEAE Dizziness (3 mg): 0 n | TEAE Fatigue (3 mg): 0 n | TEAE Headache (3 mg): 0 n | TEAE Hot flush (3 mg): 0 n | TEAE Hypervigilance (3 mg): 0 n | TEAE Insomnia (3 mg): 0 n | TEAE Metamorphopsia (3 mg): 0 n | TEAE Nausea (3 mg): 0 n | TEAE Oropharyngeal pain (3 mg): 0 n | TEAE Pharyngitis (3 mg): 0 n | TEAE Pollakiuria (3 mg): 0 n | TEAE Skin hyperpigmentation (3 mg): 0 n | TEAE Upper respiratory tract infection (3 mg): 0 n | TEAE Urinary incontinence (3 mg): 0 n | TEAE Vision blurred (3 mg): 0 n | TEAE by Highest Relationship: Not Related (3 mg): 0 n | TEAE by Highest Relationship: Related (3 mg): 0 n | TEAE by Highest Severity: Mild (3 mg): 0 n | TEAE by Highest Severity: Moderate (3 mg): 0 n | TEAE by Highest Severity: Severe (3 mg): 0 n | AE Leading to Study Drug Discontinuation (8 mg): 0 n | Any SAEs (8 mg): 0 n | Any TEAE (8 mg): 1 n | Death (8 mg): 0 n | TEAE Anxiety (8 mg): 0 n | TEAE Aspartate aminotransferase increased (8 mg): 0 n | TEAE Back pain (8 mg): 0 n | TEAE Blood pressure increased (8 mg): 0 n | TEAE Dermatitis contact (8 mg): 0 n | TEAE Dizziness (8 mg): 0 n | TEAE Fatigue (8 mg): 0 n | TEAE Headache (8 mg): 0 n | TEAE Hot flush (8 mg): 0 n | TEAE Hypervigilance (8 mg): 0 n | TEAE Insomnia (8 mg): 0 n | TEAE Metamorphopsia (8 mg): 0 n | TEAE Nausea (8 mg): 0 n | TEAE Oropharyngeal pain (8 mg): 0 n | TEAE Pharyngitis (8 mg): 0 n | TEAE Pollakiuria (8 mg): 0 n | TEAE Skin hyperpigmentation (8 mg): 0 n | TEAE Upper respiratory tract infection (8 mg): 1 n | TEAE Urinary incontinence (8 mg): 0 n | TEAE Vision blurred (8 mg): 0 n | TEAE by Highest Relationship: Not Related (8 mg): 1 n | TEAE by Highest Relationship: Related (8 mg): 0 n | TEAE by Highest Severity: Mild (8 mg): 1 n | TEAE by Highest Severity: Moderate (8 mg): 0 n | TEAE by Highest Severity: Severe (8 mg): 0 n | AE Leading to Study Drug Discontinuation (15 mg): 0 n | Any SAEs (15 mg): 0 n | Any TEAE (15 mg): 4 n | Death (15 mg): 0 n | TEAE Anxiety (15 mg): 1 n | TEAE Aspartate aminotransferase increased (15 mg): 0 n | TEAE Back pain (15 mg): 0 n | TEAE Blood pressure increased (15 mg): 0 n | TEAE Dermatitis contact (15 mg): 0 n | TEAE Dizziness (15 mg): 2 n | TEAE Fatigue (15 mg): 0 n | TEAE Headache (15 mg): 0 n | TEAE Hot flush (15 mg): 1 n | TEAE Hypervigilance (15 mg): 1 n | TEAE Insomnia (15 mg): 1 n | TEAE Metamorphopsia (15 mg): 1 n | TEAE Nausea (15 mg): 0 n | TEAE Oropharyngeal pain (15 mg): 0 n | TEAE Pharyngitis (15 mg): 0 n | TEAE Pollakiuria (15 mg): 1 n | TEAE Skin hyperpigmentation (15 mg): 0 n | TEAE Upper respiratory tract infection (15 mg): 0 n | TEAE Urinary incontinence (15 mg): 0 n | TEAE Vision blurred (15 mg): 1 n | TEAE by Highest Relationship: Not Related (15 mg): 0 n | TEAE by Highest Relationship: Related (15 mg): 4 n | TEAE by Highest Severity: Mild (15 mg): 4 n | TEAE by Highest Severity: Moderate (15 mg): 0 n | TEAE by Highest Severity: Severe (15 mg): 0 n | AE Leading to Study Drug Discontinuation (25 mg): 0 n | Any SAEs (25 mg): 0 n | Any TEAE (25 mg): 4 n | Death (25 mg): 0 n | TEAE Anxiety (25 mg): 0 n | TEAE Aspartate aminotransferase increased (25 mg): 0 n | TEAE Back pain (25 mg): 0 n | TEAE Blood pressure increased (25 mg): 0 n | TEAE Dermatitis contact (25 mg): 0 n | TEAE Dizziness (25 mg): 4 n | TEAE Fatigue (25 mg): 1 n | TEAE Headache (25 mg): 0 n | TEAE Hot flush (25 mg): 0 n | TEAE Hypervigilance (25 mg): 0 n | TEAE Insomnia (25 mg): 0 n | TEAE Metamorphopsia (25 mg): 0 n | TEAE Nausea (25 mg): 0 n | TEAE Oropharyngeal pain (25 mg): 1 n | TEAE Pharyngitis (25 mg): 0 n | TEAE Pollakiuria (25 mg): 1 n | TEAE Skin hyperpigmentation (25 mg): 0 n | TEAE Upper respiratory tract infection (25 mg): 0 n | TEAE Urinary incontinence (25 mg): 0 n | TEAE Vision blurred (25 mg): 0 n | TEAE by Highest Relationship: Not Related (25 mg): 0 n | TEAE by Highest Relationship: Related (25 mg): 4 n | TEAE by Highest Severity: Mild (25 mg): 4 n | TEAE by Highest Severity: Moderate (25 mg): 0 n | TEAE by Highest Severity: Severe (25 mg): 0 n | AE Leading to Study Drug Discontinuation (50 mg): 0 n | Any SAEs (50 mg): 0 n | Any TEAE (50 mg): 2 n | Death (50 mg): 0 n | TEAE Anxiety (50 mg): 0 n | TEAE Aspartate aminotransferase increased (50 mg): 1 n | TEAE Back pain (50 mg): 0 n | TEAE Blood pressure increased (50 mg): 1 n | TEAE Dermatitis contact (50 mg): 0 n | TEAE Dizziness (50 mg): 2 n | TEAE Fatigue (50 mg): 0 n | TEAE Headache (50 mg): 1 n | TEAE Hot flush (50 mg): 0 n | TEAE Hypervigilance (50 mg): 0 n | TEAE Insomnia (50 mg): 0 n | TEAE Metamorphopsia (50 mg): 0 n | TEAE Nausea (50 mg): 2 n | TEAE Oropharyngeal pain (50 mg): 0 n | TEAE Pharyngitis (50 mg): 0 n | TEAE Pollakiuria (50 mg): 2 n | TEAE Skin hyperpigmentation (50 mg): 0 n | TEAE Upper respiratory tract infection (50 mg): 0 n | TEAE Urinary incontinence (50 mg): 1 n | TEAE Vision blurred (50 mg): 1 n | TEAE by Highest Relationship: Not Related (50 mg): 0 n | TEAE by Highest Relationship: Related (50 mg): 2 n | TEAE by Highest Severity: Mild (50 mg): 1 n | TEAE by Highest Severity: Moderate (50 mg): 1 n | TEAE by Highest Severity: Severe (50 mg): 0 n | AE Leading to Study Drug Discontinuation (Total (N = 36)): 0 n | Any SAEs (Total (N = 36)): 0 n | Any TEAE (Total (N = 36)): 15 n | Death (Total (N = 36)): 0 n | TEAE Anxiety (Total (N = 36)): 1 n | TEAE Aspartate aminotransferase increased (Total (N = 36)): 1 n | TEAE Back pain (Total (N = 36)): 0 n | TEAE Blood pressure increased (Total (N = 36)): 1 n | TEAE Dermatitis contact (Total (N = 36)): 1 n | TEAE Dizziness (Total (N = 36)): 8 n | TEAE Fatigue (Total (N = 36)): 1 n | TEAE Headache (Total (N = 36)): 1 n | TEAE Hot flush (Total (N = 36)): 1 n | TEAE Hypervigilance (Total (N = 36)): 1 n | TEAE Insomnia (Total (N = 36)): 1 n | TEAE Metamorphopsia (Total (N = 36)): 1 n | TEAE Nausea (Total (N = 36)): 2 n | TEAE Oropharyngeal pain (Total (N = 36)): 1 n | TEAE Pharyngitis (Total (N = 36)): 1 n | TEAE Pollakiuria (Total (N = 36)): 4 n | TEAE Skin hyperpigmentation (Total (N = 36)): 1 n | TEAE Upper respiratory tract infection (Total (N = 36)): 1 n | TEAE Urinary incontinence (Total (N = 36)): 1 n | TEAE Vision blurred (Total (N = 36)): 2 n | TEAE by Highest Relationship: Not Related (Total (N = 36)): 5 n | TEAE by Highest Relationship: Related (Total (N = 36)): 10 n | TEAE by Highest Severity: Mild (Total (N = 36)): 11 n | TEAE by Highest Severity: Moderate (Total (N = 36)): 4 n | TEAE by Highest Severity: Severe (Total (N = 36)): 0 n | Tolerability (single doses 1 to 50 mg): well tolerated
